The test addresses T1, mouse TRPM7 (Mus musculus, UniProt Q923J1).
T1 construct: full-length channel-kinase, untagged, in bicistronic pIRES2-EGFP, transiently expressed in HEK293T cells; homotetramer
Briefly: whole-cell patch clamp, current at +[…] mV. The conditions noted are these: external NS8593, inhibitor; Mg2+-free intracellular solution; pH 7.2. It is filed as cell-based. For orientation: In patch-clamp work, channel activity is measured electrically.

Structures are written as SMILES.

T1 sequence (Q923J1 whole entry): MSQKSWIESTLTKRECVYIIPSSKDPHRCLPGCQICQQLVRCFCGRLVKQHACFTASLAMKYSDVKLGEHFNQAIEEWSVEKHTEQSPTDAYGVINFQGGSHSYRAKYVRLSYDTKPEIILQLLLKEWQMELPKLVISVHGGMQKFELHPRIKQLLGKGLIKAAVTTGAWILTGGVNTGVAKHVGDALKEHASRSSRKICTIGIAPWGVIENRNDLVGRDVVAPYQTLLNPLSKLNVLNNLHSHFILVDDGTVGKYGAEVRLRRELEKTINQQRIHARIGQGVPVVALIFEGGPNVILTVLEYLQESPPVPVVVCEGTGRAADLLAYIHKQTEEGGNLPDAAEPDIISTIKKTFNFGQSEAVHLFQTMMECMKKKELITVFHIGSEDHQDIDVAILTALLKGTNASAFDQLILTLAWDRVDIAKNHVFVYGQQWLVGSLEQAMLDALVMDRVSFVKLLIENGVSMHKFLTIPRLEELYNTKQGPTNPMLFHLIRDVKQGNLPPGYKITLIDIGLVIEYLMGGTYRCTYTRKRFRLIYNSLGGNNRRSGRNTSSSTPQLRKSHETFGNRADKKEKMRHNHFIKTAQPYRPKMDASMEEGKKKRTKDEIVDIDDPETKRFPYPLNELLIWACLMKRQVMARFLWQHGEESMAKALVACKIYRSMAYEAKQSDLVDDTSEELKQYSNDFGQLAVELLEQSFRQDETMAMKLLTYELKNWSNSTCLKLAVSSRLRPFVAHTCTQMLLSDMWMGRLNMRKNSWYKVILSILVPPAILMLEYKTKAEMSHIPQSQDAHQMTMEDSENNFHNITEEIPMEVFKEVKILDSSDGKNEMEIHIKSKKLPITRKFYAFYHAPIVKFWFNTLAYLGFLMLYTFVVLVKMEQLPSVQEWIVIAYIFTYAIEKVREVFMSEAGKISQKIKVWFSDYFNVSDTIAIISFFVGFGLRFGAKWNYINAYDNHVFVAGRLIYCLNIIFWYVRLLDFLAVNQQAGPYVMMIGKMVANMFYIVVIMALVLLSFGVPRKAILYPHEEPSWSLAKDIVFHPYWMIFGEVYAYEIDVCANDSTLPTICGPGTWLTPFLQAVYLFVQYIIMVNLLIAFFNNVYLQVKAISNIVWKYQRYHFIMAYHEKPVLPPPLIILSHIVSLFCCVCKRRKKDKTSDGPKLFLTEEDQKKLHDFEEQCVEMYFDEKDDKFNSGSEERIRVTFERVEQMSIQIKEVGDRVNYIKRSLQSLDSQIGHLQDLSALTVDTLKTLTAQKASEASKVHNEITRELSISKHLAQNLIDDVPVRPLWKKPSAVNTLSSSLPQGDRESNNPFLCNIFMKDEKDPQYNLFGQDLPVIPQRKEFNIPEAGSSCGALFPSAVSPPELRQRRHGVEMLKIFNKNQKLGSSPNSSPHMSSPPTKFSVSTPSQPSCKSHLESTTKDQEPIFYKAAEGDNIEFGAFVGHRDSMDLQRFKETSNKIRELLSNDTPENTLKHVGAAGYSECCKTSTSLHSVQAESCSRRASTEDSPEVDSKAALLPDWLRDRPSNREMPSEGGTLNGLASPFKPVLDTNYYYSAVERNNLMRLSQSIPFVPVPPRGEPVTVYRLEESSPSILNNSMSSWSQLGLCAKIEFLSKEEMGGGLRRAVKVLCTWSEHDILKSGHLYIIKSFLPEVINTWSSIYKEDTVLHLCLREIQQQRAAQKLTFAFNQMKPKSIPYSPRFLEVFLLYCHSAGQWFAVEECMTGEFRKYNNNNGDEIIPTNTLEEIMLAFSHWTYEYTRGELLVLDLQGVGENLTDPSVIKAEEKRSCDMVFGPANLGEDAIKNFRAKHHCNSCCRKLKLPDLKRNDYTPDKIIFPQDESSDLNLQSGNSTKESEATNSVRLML

Regarding `c1ccc2c(c1)CCC[C@H]2Nc1nc2ccccc2[nH]1` [NS8593], the “current inhibition at 10 μM” value is “NS8593 caused a rapid inhibition of WT and N1097Q currents”.

These data come from article PMC8989868, “Structural mechanism of TRPM7 channel regulation by intracellular magnesium” (Cellular and Molecular Life Sciences: CMLS, 2022).
